What all share (type): in vivo, albino male rats
Experiment [1] has as its system growth hormone. Kind of experiment: Arginine-stimulated growth hormone release in Nembutal-anesthetized rats, blood radioimmunoassay. To be noted: rat, * p < 0.01. As for the experimental part:
(§1) The in vivo activity of the polypeptides of this invention was established by subjecting the product of Examples 2 and 3 as representative compounds of the invention, to the following standard test procedure: Two groups of ten albino male rats were arranged to provide a control group and a group for study of the compounds of this invention. Nembutal (50 mg/kg) was injected intraperitoneally into each rat. Fifteen minutes late a subcutaneous injection of the test compound or physiological saline (control) was administered separately to each of the two groups of rats. Ten minutes later 0.5 milliliters of arginine (300 mg/ml., pH 7.2) was injected into the rats heart. The rats were decapitated five minutes later and their blood was collected in Trasylol-EDTA. Aliquot samples were radioimmunoassayed for growth hormone, insulin and glucagon.

The next experiment concerns insulin. Nature of the experiment: Arginine-stimulated insulin release in Nembutal-anesthetized rats, blood radioimmunoassay. As to conditions: rat. The procedure: as §1
The next experiment has as its system glucagon. Nature of the experiment: Arginine-stimulated glucagon release in Nembutal-anesthetized rats, blood radioimmunoassay. As to conditions: rat. As for the experimental part:
as §1

Experiment [2] relates to growth hormone. Kind of experiment: Duration test: same procedure with 2 and 4 hour period before blood sampling, growth hormone radioimmunoassay. As to conditions: rat, 1,000 ug/kg. The procedure: as §1, with “glucagon. The results of these tests are presented below:” for “glucagon.”
The procedure described in the preceding paragraph was repeated with the exception that a 2 and 4 hour period was allowed to elapse before blood sampling.

The mark [3] stands for this setting: summary statement, for periods up to about four hours.
[4] abbreviates: 2 hours before blood sampling, * p < 0.01.
The mark [5] stands for this setting: 4 hours before blood sampling, + p < 0.05.

Structures can show the parent of a compound that is named as a salt. Positions of bridges follow the written chain, without caps; N, C: chain ends. Non-standard residues stand in square brackets, D forms with d. Residues, ends and D or L forms follow the SMILES beside them.

Regarding `C[C@@H](O)[C@@H]1NC(=O)[C@H](Cc2ccccc2)NC(=O)[C@H]([C@@H](C)O)NC(=O)[C@H](CCCCN)NC(=O)[C@@H](Cc2c[nH]c3ccccc23)NC(=O)[C@H](Cc2c[nH]c3ccccc23)NC(=O)[C@H](Cc2ccccc2)NC(=O)[C@H](Cc2c[nH]cn2)NC(=O)[C@H](CCCNC(=N)N)NC(=O)[C@@H](N)CSSC[C@@H](C(=O)O)NC(=O)[C@H](CO)NC1=O` [Example 2, L-Cysteinyl-L-arginyl-L-histidyl-L-phenylalanyl-L-tryptophyl-D-tryptophyl-L-lysyl-L-threonyl-L-phenylalanyl-L-threonyl-L-seryl-L-cysteine cyclic (1-12) disulfide tetraacetate salt] (H-CRHFW[dW]KTFTSC-OH; disulfide 1-12), the GH in the experiment on growth hormone [1] (50 μg/kg subcutaneous, control 379 ± 50) was determined as 104 ± 8 ng/mL; in the experiment on growth hormone [1] (200 μg/kg subcutaneous, control 202 ± 11), 92 ± 8 ng/mL; in the experiment with growth hormone [2] (setting [4]), 51 ± 9 ng/mL; in the experiment with growth hormone [2] (setting [5]) it was 60 ± 11 ng/mL. Further, the INS in the experiment on insulin (50 μg/kg subcutaneous, control 137 ± 25) is 61 ± 4 μU/ml; with insulin (200 μg/kg subcutaneous, control 238 ± 23, + p < 0.05) it was 149 ± 23 μU/ml. For the same compound, in the experiment with insulin (setting [3]), the “insulin release (result in words)” value is “suppress”. The GLUN was 36 ± 8 pg/mL with glucagon (50 μg/kg subcutaneous, control 119 ± 8, * p < 0.01) and 20 ± 4 pg/mL in the experiment on glucagon (200 μg/kg subcutaneous, control 85 ± 6, * p < 0.01). In addition, the “glucagon release (result in words)” value in the experiment on glucagon (setting [3]) is recorded as “suppress”.

Regarding `C[C@@H](O)[C@@H]1NC(=O)[C@H](Cc2ccccc2)NC(=O)[C@H]([C@@H](C)O)NC(=O)[C@H](CCCCN)NC(=O)[C@@H](Cc2c[nH]c3ccccc23)NC(=O)[C@H](Cc2c[nH]cn2)NC(=O)[C@H](Cc2ccccc2)NC(=O)[C@H](Cc2c[nH]cn2)NC(=O)[C@H](CCCNC(=N)N)NC(=O)[C@@H](N)CSSC[C@@H](C(=O)O)NC(=O)[C@H](CO)NC1=O` [Example 3, L-Cysteinyl-L-arginyl-L-histidyl-L-phenylalanyl-L-histidyl-D-tryptophyl-L-lysyl-L-threonyl-L-phenylalanyl-L-threonyl-L-seryl-L-cysteine cyclic (1-12) disulfide tetraacetate salt] (H-CRHFH[dW]KTFTSC-OH; disulfide 1-12), the GH with growth hormone [1] (100 μg/kg subcutaneous, control 201 ± 40) was 48 ± 20 ng/mL; in the experiment with growth hormone [2] (setting [4]), 181 ± 59 ng/mL; in the experiment on growth hormone [2] (setting [5]), 129 ± 29 ng/mL. Also, the INS in the experiment with insulin (100 μg/kg subcutaneous, control 268 ± 21) stood at 282 ± 48 μU/ml. In addition, in the experiment on glucagon (100 μg/kg subcutaneous, control 89 ± 14), the GLUN is 72 ± 13 pg/mL.
